Drawing on patent publication US6433165B1, “Chemokine receptor antagonists and methods of use therefor” (Millennium Pharmaceuticals, Inc., priority 1998, dated 2002), this text covers IC50 for 20 compounds.

For one test, the target named is T1, RANTES / MIP-1α binding to THP-1 cell membranes (Homo sapiens, UniProt P32246).
T1 sequence (P32246 1-355): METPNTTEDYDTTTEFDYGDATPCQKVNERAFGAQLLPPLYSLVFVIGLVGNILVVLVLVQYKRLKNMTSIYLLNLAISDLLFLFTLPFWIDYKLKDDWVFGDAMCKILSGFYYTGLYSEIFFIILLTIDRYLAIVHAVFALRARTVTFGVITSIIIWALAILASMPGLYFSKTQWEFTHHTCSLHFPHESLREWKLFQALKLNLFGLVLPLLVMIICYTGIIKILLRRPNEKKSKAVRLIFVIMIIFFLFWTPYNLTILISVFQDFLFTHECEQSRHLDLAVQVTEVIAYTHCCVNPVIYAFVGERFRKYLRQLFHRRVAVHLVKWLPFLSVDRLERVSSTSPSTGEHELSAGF
As to the kind of experiment: Receptor binding assay, 125I-RANTES or 125I-MIP-1α binding to THP-1 cell membranes.
Conditions: not given
As for the experimental part:
Membranes were prepared from THP-1 cells (ATCC #TIB202). Cells were harvested by centrifugation, washed twice with PBS (phosphate-buffered saline), and the cell pellets were frozen at −70 to −85° C. […] This procedure results in cell lysis. The suspension was mixed well to resuspend all of the frozen cell pellet. Nuclei and cell debris were removed by centrifugation of 400×g for 10 minutes at 4° C. The supernatant was transferred to a fresh tube and the membrane fragments were collected by centrifugation at 25,000×g for 30 minutes at 4° C. The supernatant was aspirated and the pellet was resuspended in freezing buffer consisting of 10 mM HEPES pH 7.5, 300 mM sucrose, 1 μg/ml each aprotinin, leupeptin, and chymostatin, and 10 μg/ml PMSF (approximately 0.1 ml per each 10^8 cells). All clumps were resolved using a minihomogenizer, and the total protein concentration was determined using a protein assay kit (Bio-Rad, Hercules, Calif., cat #500-0002). The membrane solution was then aliquoted and frozen at −70 to −85° C. until needed. Binding Assays utilized the membranes described above. […] The binding reactions were terminated by harvesting the membranes by rapid filtration through glass fiber filters (GF/B or GF/C, Packard) which were presoaked in 0.3% polyethyleneimine. The filters were rinsed with approximately 600 μl of binding buffer containing 0.5 M NaCl, dried, and the amount of bound radioactivity was determined by scintillation counting in a Topcount beta-plate counter.
`N#CC1(CCCN2CCC(O)(c3ccc(Cl)cc3)CC2)c2ccccc2C[S+]([O-])c2ccccc21` (single isomer, unassigned) [Example 14, 4-(4-Chlorophenyl)-1-[3-(11-cyano-6,11-dihydro-5-oxodibenzo[b,e]thiepin-11-yl)propyl]piperidin-4-ol] registered an IC50 of less than 1000 nM.

Compound `N#CC1(CCCN2CCC(O)(c3ccc(Cl)cc3)CC2)c2ccccc2CCc2ccccc21` [Example 2, 4-(4-Chlorophenyl)-1-[3-(5-cyano-10,11-dihydro-5H-dibenzo[a,d]cycloheptene-5-yl)propyl]piperidin-4-ol] showed an IC50 of less than 1000 nM.

`N#CC1(CCCN2CCC(O)(c3ccc(Cl)cc3)CC2)c2ccccc2CSc2ccccc21` (centres unmarked) [Example 10, 4-(4-Chlorophenyl)-1-[3-(11-cyano-6,11-dihydrodibenzo[b,e]thiepin-11-yl)propyl]piperidin-4-ol] gave an IC50 of less than 1000 nM.

As to `O=C(NCC1(CCCN2CCC(O)(c3ccc(Cl)cc3)CC2)c2ccccc2CSc2ccccc21)Oc1ccccc1` (centres unmarked) [Example 22, Phenyl N-[11-[3-(4-(4-chlorophenyl)-4-hydroxypiperidino)propyl]-6,11-dihydrodibenzo[b,e]thiepin-11-yl)methyl Carbamate], the IC50 is less than 1000 nM.

`O=C(CCN1CCC(O)(c2ccc(Cl)cc2)CC1)C1c2ccccc2CCc2ccccc21` [Example 24, 4-(4-Chlorophenyl)-1-[3-(10,11-dihydro-5H-dibenzo[a,d]cycloheptene-5-yl)-3-propioyl]piperidin-4-ol] came in with an IC50 of less than 1000 nM.

The same test, now with this note: 125I-RANTES or 125I-MIP-1α as ligand; THP-1 cell membranes; 60 min at room temperature; read-out: IC50 (inhibitor concentration required for 50% inhibition of specific binding).
As to `N#CC1(CCCN2CCC(O)(c3ccc(Cl)cc3)CC2)c2ccccc2C=Cc2ccccc21` [Example 1, 4-(4-Chlorophenyl)1-[3-(5-cyano-5H-dibenzo[a,d]cycloheptene-5-yl)propyl]piperidin-4-ol], the IC50 is less than 1000 nM.

As for `N#CC1(CCCN2CCC(O)(c3ccc(Cl)cc3)CC2)c2ccccc2COc2ccccc21` (centres unmarked) [Example 3, 4-(4-Chlorophenyl)-1-[3-(11-cyano-6,11-dihydrodibenz[b,e]oxepin-11-yl)propyl]piperidin-4-ol], the IC50 was less than 1000 nM.

With `N#CC1(CCCN2CCC(O)(c3ccc(F)cc3)CC2)c2ccccc2COc2ccccc21` (centres unmarked) [Example 4, 1-[3-(11-Cyano-6,11-dihydrodibenz[b,e]oxepin-11-yl)propyl]-4-(4-fluorophenyl)piperidin-4-ol], the IC50 is less than 1000 nM.

`N#CC1(CCCN2CCC(O)(c3ccc(Cl)cc3)CC2)c2ccccc2COc2ccc(F)cc21` (centres unmarked) [Example 5, 4-(4-Chlorophenyl)-1-[3-(11-cyano-6,11-dihydro-2-fluorodibenz[b,e]oxepin-11-yl)propyl]piperidin-4-ol]: the IC50 was less than 1000 nM.

As for `N#CC1(CCCN2CCC(O)(c3ccc(Cl)cc3)CC2)c2ccccc2COc2ccc(Br)cc21` (centres unmarked) [Example 6, 1-[3-(2-Bromo-11-cyano-6,11-dihydrodibenz[b,e]oxepin-11-yl)propyl]-4-(4-chlorophenyl)piperidin-4-ol], the IC50 is less than 1000 nM.

Take `Cc1ccc2c(c1)C(C#N)(CCCN1CCC(O)(c3ccc(Cl)cc3)CC1)c1ccccc1CO2` (centres unmarked) [Example 7, 4-(4-Chlorophenyl)-1-[3-(11-cyano-6,11-dihydro-2-methyldibenz[b,e]oxepin-11-yl)propyl]piperidin-4-ol]: the IC50 is less than 1000 nM.

`N#CC1(CCCN2CCC(O)(c3ccccc3)CC2)c2ccccc2CSc2ccccc21` (centres unmarked) [Example 11, 1-[3-(11-Cyano-6,11-dihydrodibenzo[b,e]thiepin-11-yl)propyl]-4-phenylpiperidin-4-ol]: the IC50 was less than 100000 nM.

In the case of `N#CC1(CCCN2CCC(O)(c3ccc(Br)cc3)CC2)c2ccccc2CSc2ccccc21` (centres unmarked) [Example 12, 4-(4-Bromophenyl)-1-[3-(11-cyano-6,11-dihydrodibenzo[b,e]thiepin-11-yl)propyl]piperidin-4-ol], the IC50 is less than 1000 nM.

For the compound `N#CC1(CCCN2CCC(O)(c3ccc(Cl)cc3)CC2)c2ccccc2CSc2ccc(Br)cc21` (centres unmarked) [Example 13, 1-[3-(2-Bromo-11-cyano-6,11-dihydrodibenzo[b,e]thiepin-11-yl)propyl]-4-(4-chlorophenyl)piperidin-4-ol], the IC50 is less than 1000 nM.

Take `N#CC1(CCCN2CCC(O)(c3ccc(Cl)cc3)CC2)c2ccccc2CS(=O)(=O)c2ccccc21` (centres unmarked) [Example 16, 4-(4-Chlorophenyl)-1-[3-(11-cyano-6,11-dihydro-5,5-dioxodibenzo[b,e]thiepin-11-yl)propyl]piperidin-4-ol]: the IC50 was less than 1000 nM.

`OC1(c2ccc(Cl)cc2)CCN(CCCC2c3ccccc3CSc3ccccc32)CC1` (centres unmarked) [Example 17, 4-(4-Chlorophenyl)-1-[3-(6,11-dihydrodibenzo[b,e]thiepin-11-yl)propyl]piperidin-4-ol]: the IC50 is less than 1000 nM.

In the case of `OC1(c2ccc(Cl)cc2)CCN(CCCC2c3ccccc3CCc3ccccc32)CC1` [Example 18, 4-(4-Chlorophenyl)-1-[3-(10,11-dihydro-5H-dibenzo[a,d]cycloheptene-5-yl)propyl]piperidin-4-ol], the IC50 is less than 1000 nM.

As for `OC1(c2ccc(Cl)cc2)CCN(CCCC2c3ccccc3COc3ccccc32)CC1` (centres unmarked) [Example 19, 4-(4-Chlorophenyl)-1-[3-(6,11-dihydrodibenz[b,e]oxepin-11-yl)propyl]piperidin-4-ol], the IC50 was less than 1000 nM.

As to `O=C(NCCCO)NCC1(CCCN2CCC(O)(c3ccc(Cl)cc3)CC2)c2ccccc2CSc2ccccc21` (centres unmarked) [Example 23, 1-[11-[3-(4-(4-chlorophenyl)-4-hydroxypiperidino)propyl]-6,11-dihydrodibenzo[b,e]thiepin-11-yl]methyl-8-(3-hydroxypropyl)urea], the IC50 was less than 10000 nM.

The test is the same for the next values; noted with them: read-out: IC50 (inhibitor concentration required for 50% inhibition of specific binding); 125I-RANTES or 125I-MIP-1α as ligand; THP-1 cell membranes; 60 min at room temperature.
As for `N#CC1(CCCN2CCC(O)(c3ccc(Cl)cc3)CC2)c2ccccc2C[S+]([O-])c2ccccc21` (single isomer, unassigned) [Example 15, 4-(4-Chlorophenyl)-1-[3-(11-cyano-6,11-dihydro-5-oxodibenzo[b,e]thiepin-11-yl)propyl]piperidin-4-ol], the IC50 is less than 1000 nM.
